Data reported in US20260068888A1, “ALGICIDAL FOAM COMPOSITIONS AND METHODS OF MAKING AND USING THEREOF” (THE ADMINISTRATORS OF THE TULANE EDUCATIONAL FUND, priority 2024, published 2026).

Test system: Karenia brevis (KB) cells
Test: SYTOX-Green assay of cell-membrane integrity
Type: cell-based
Description: SYTOX-Green Assay. The effects of treatments on the cells were also investigated utilizing the SYTOX-green assay, a technique designed to evaluate cell-membrane integrity. The SYTOX-green dye selectively permeates through compromised cell membranes and produces green-fluorescent color upon interaction with nucleic acid. […] For the assay protocol, a 1.0 ml aliquot of the cell suspension was incubated with 10 μl of the dye solution ([…]) for 15 minutes in the dark, resulting in a final dye concentration of […]. The dye concentration and the incubation time were validated by the heat-treated K. brevis cells for 1 h at 60° C. The cell suspension was then transferred in an optically clear well plate for visualization under an inverted fluorescence microscope (Ex: 465-495 nm; Em: 515 nm, long pass).

[1] = gallic acid 5 mg/mL in the foam stock solution, Tween 80 1.25 mg/mL

## O.O=C(O)c1cc(O)c(O)c(O)c1 [gallic acid, Gallic acid monohydrate]
[1]
  time by which non-viable cells become lysed (loss of green fluorescence): ≤ 6 h
  time to membrane compromised cells (SYTOX-green): ≤ 3 h
Gallic acid in foam, 24 hours
  cell green fluorescence (lysis), SYTOX-green: almost total loss of cell green fluorescence
